The source of these data is patent US9908843B2, “Benzamide derivatives useful in the treatment of muscular disorders and pain and for controlling spasticity and tremors” (Canbex Therapeutics Limited, priority 2013, dated 2018).

SMILES strings stand for the structures. Where two headings read alike, the source gives them in different places.

As usually defined, the Emax is the maximal effect, on the per cent scale that the assay sets.

One test concerns mouse vas deferens. In words: Inhibition of electrically-evoked contractions of the mouse isolated vas deferens. In kind it is cell-based. As to conditions: for potency (EC50) greater than VSN-16R: vas deferens mouse assay, relative to VSN-16R. As for the experimental part:
Compounds were evaluated using a mouse vas deferens preparation [Ward S, Mastriani D, Casiano F and Arnold R (1990) J Pharmacol Exp Ther 255:1230-1239]. The mouse vas deferens isolated tissue preparation is used as an in vitro bioassay to assess the actions of compounds on neurotransmission. Electrically-evoked contractions are induced in the preparation and compounds which affect neurotransmission will inhibit these contractions in a concentration related manner. […] CB1 agonists inhibit electrically-evoked contractions.
Vasa deferentia were obtained from albino MF1 mice weighing 31-59 g. The tissues were mounted vertically in 4 ml organ baths. They were then subjected to electrical stimulation of progressively greater intensity, followed by an equilibration procedure in which they were exposed to alternate periods of stimulation (2 min) and rest (10 min) until contractions with consistent amplitudes were obtained. These contractions were monophasic and isometric, and were evoked by 0.5 s trains of pulses of 110% maximal voltage (train frequency 0.1 Hz; pulse frequency 5 Hz; pulse duration 0.5 ms).
All drug additions were made to the organ baths after the equilibration period and there was no washout between these additions. Potential antagonist or its vehicle were added to the preparation. This was followed 28 min later by a 2-min period of electrical stimulation, at the end of which the lowest of a series of concentrations of the twitch inhibitors was applied. After a period of rest, the tissues were electrically stimulated for 2 min and then subjected to a further addition of twitch inhibitor. This cycle of drug addition, rest and 2 min stimulation was repeated so as to construct cumulative concentration—response curves. Only one concentration—response curve was constructed per tissue.
Values for EC50, maximal effect (Emax) and the s.e.m. or 95% confidence limits of these values have been calculated by nonlinear regression analysis using the equation for a sigmoid concentration—response curve (GraphPad Prism).

For a further test, the system named is spasticity in CREAE mice. The conditions noted are these: cited from earlier work.
Test [1] relates to mouse vas deferens (CB1 knock-out). Briefly: VSN-16R dose response curve in mouse vas deferens, CB1 knock-out. The class given is cell-based.
Test [2] has as its system mouse vas deferens (CB2 knock-out). In words: VSN-16R dose response curve in mouse vas deferens, CB2 knock-out. The class given is cell-based.
Setting [3] is: Mus musculus, Table 2, read-out: EC50.
Setting [4] is: Mus musculus, Table 2, read-out: Emax (%).

In the case of `COC(=O)[C@@H](Cc1ccccc1)NC(=O)c1cccc(C#CCCCC(=O)N(C)C)c1` [[30], (R)-methyl 2-(3-(6-(dimethylamino)-6-oxohex-1-yn-1-yl)benzamido)-3-phenylpropanoate], in the test on mouse vas deferens (setting [3]), the EC50 was 0.0614 nM. For the same molecule, the maximal effect (Emax) in the test with mouse vas deferens (setting [4]) is 46.3%.

Consider `COC(=O)[C@@H](CO)NC(=O)c1cccc(/C=C\CCCC(=O)N(C)C)c1` [[29], (R,Z)-methyl 2-(3-(6-(dimethylamino)-6-oxohex-1-en-1-yl)benzamido)-3-hydroxypropanoate], for which, in the test with mouse vas deferens (setting [3]), the EC50 was 0.0456 nM. Besides, the Emax in the test with mouse vas deferens (setting [4]) was 62%.

Regarding `CN(C)C(=O)CCC/C=C\c1cccc(C(=O)N[C@@H](CO)C(=O)O)c1` [[18], (S,Z)-2-(3-(6-(dimethylamino)-6-oxohex-1-en-1-yl)benzamido)-3-hydroxypropanoic acid], in the test on mouse vas deferens (setting [3]), the EC50 worked out at 0.382 nM. For the same molecule, in the test on mouse vas deferens (setting [4]), the Emax was 62.7%.

`CN(C)C(=O)CCC/C=C\c1cccc(C(=O)N[C@@H](Cc2ccccc2)C(=O)O)c1` [[17], (S,Z)-2-(3-(6-(dimethylamino)-6-oxohex-1-en-1-yl)benzamido)-3-phenylpropanoic acid]: the EC50 with mouse vas deferens (setting [3]) is 0.14 nM. The maximum response (Emax) with mouse vas deferens (setting [4]) was determined as 56.3%.

Regarding `COC(=O)[C@@H](Cc1ccccc1)NC(=O)c1cccc(/C=C\CCCC(=O)N(C)C)c1` [[31], (R,Z)-methyl 2-(3-(6-(dimethylamino)-6-oxohex-1-en-1-yl)benzamido)-3-phenylpropanoate], the EC50 in the test with mouse vas deferens (setting [3]) amounted to 0.0122 nM. Moreover, the maximal response (Emax) in the test on mouse vas deferens (setting [4]) was 47%.

For `CN(C)C(=O)CCC/C=C\c1cccc(C(=O)NCC(=O)O)c1` [[15], (Z)-2-(3-(6-(dimethylamino)-6-oxohex-1-en-1-yl)benzamido)acetic acid], the EC50 in the test with mouse vas deferens (setting [3]) is 0.102 nM. For the same molecule, the Emax in the test on mouse vas deferens (setting [4]) was 53.7%.

As for `CC(CO)NC(=O)c1cccc(/C=C\CCCC(=O)N(C)C)c1` (stereo not shown) [VSN16], the effect on spasticity entry with spasticity in CREAE mice is on record as “marked effect on spasticity”.

Turning to `COC(=O)CNC(=O)c1cccc(C#CCCCC(=O)N(C)C)c1` [[22], methyl 2-(3-(6-(dimethylamino)-6-oxohex-1-yn-1-yl)benzamido)acetate], in the test with mouse vas deferens (setting [3]), the EC50 stood at 0.112 nM. Besides, in the test with mouse vas deferens (setting [4]), the Emax is 52.9%.

`COC(=O)[C@H](CO)NC(=O)c1cccc(C#CCCCC(=O)N(C)C)c1` [[24], (S)-methyl 2-(3-(6-(dimethylamino)-6-oxohex-1-yn-1-yl)benzamido)-3-hydroxypropanoate]: the EC50 with mouse vas deferens (setting [3]) is 0.412 nM. In addition, in the test on mouse vas deferens (setting [4]), the Emax was 51.5%.

Regarding `CN(C)C(=O)CCC/C=C\c1cccc(C(=O)N[C@H](Cc2ccccc2)C(=O)O)c1` [[16], (R,Z)-2-(3-(6-(dimethylamino)-6-oxohex-1-en-1-yl)benzamido)-3-phenylpropanoic acid], the EC50 with mouse vas deferens (setting [3]) was found to be 0.00604 nM. In the test on mouse vas deferens (setting [4]), the maximum response (Emax) is 73.9%.

As for `COC(=O)[C@H](Cc1ccccc1)NC(=O)c1cccc(/C=C\CCCC(=O)N(C)C)c1` [[27], (S,Z)-methyl 2-(3-(6-(dimethylamino)-6-oxohex-1-en-1-yl)benzamido)-3-phenylpropanoate], the EC50 with mouse vas deferens (setting [3]) stood at 0.0908 nM. Moreover, the maximal effect (Emax) in the test with mouse vas deferens (setting [4]) is 55.3%.

As for `C[C@H](CO)NC(=O)c1cccc(/C=C\CCCC(=O)N(C)C)c1` [VSN16R, reference compound], the EC50 in test [1] was 12.7 nM; in the test with mouse vas deferens (Mus musculus, Table 1), 10.4 nM; in the test on mouse vas deferens (Mus musculus, Table 2), 0.722 nM; in the test with mouse vas deferens (Mus musculus, read-out: pEC50 ± SEM, Table 1 (converted)) it was 10.5 nM; with mouse vas deferens (Mus musculus, wild type, FIG. 3) it was 10.4 nM; in test [2], 17.6 nM. Also, the maximum response (Emax) with mouse vas deferens (Mus musculus) is 40.7%; in the test on mouse vas deferens (Mus musculus, read-out: Emax (%) ± 95% confidence limits) it was 56%.

In the case of `C[C@@H](NC(=O)c1cccc(/C=C\CCCC(=O)N(C)C)c1)C(=O)O` [[1], (Z)-(3-(6-(dimethylamino)-6-oxohex-1-en-1-yl)benzoyl)-D-alanine], the EC50 was 1.42 nM with mouse vas deferens (Mus musculus, Table 1, read-out: EC50); 1.41 nM with mouse vas deferens (Mus musculus, Table 1, read-out: pEC50 ± SEM (converted)); 0.00655 nM in the test on mouse vas deferens (setting [3]). The Emax in the test on mouse vas deferens (setting [4]) stood at 64%; with mouse vas deferens (Mus musculus, Table 1, inhibition of electrically-evoked twitch response, read-out: Emax (%) ± 95% confidence limits) it was 46%. Also, the “potency (EC50) greater than VSN-16R” value in the test with mouse vas deferens is 10 fold; in the test with mouse vas deferens (listed as VSN44), “ten-fold greater”; in the test on mouse vas deferens (listed as VSN-44) it was not below 10 fold.

In the case of `COC(=O)[C@H](C)NC(=O)c1cccc(C#CCCCC(=O)N(C)C)c1` [[32], (S)-methyl 2-(3-(6-(dimethylamino)-6-oxohex-1-yn-1-yl)benzamido)propanoate], the EC50 in the test with mouse vas deferens (setting [3]) stood at 0.0131 nM. In addition, the maximum response (Emax) in the test with mouse vas deferens (setting [4]) was 54.6%.

As to `COC(=O)CNC(=O)c1cccc(/C=C\CCCC(=O)N(C)C)c1` [[23], (Z)-methyl 2-(3-(6-(dimethylamino)-6-oxohex-1-en-1-yl)benzamido)acetate], the EC50 in the test on mouse vas deferens (setting [3]) was determined as 0.0225 nM. In the test with mouse vas deferens (setting [4]), the Emax is 59.2%.

In the case of `Cc1c(C(=O)c2cccc3ccccc23)c2cccc3c2n1[C@H](CN1CCOCC1)CO3` [WIN55212-2, reference compound], in the test on mouse vas deferens (Table 1), the “pEC50 ± SEM” value was 8.41 ± 0.237. Besides, the “Emax (%) ± 95% confidence limits” value with mouse vas deferens (Table 1, inhibition of electrically-evoked twitch response) is 62 (52-72) %. Moreover, in the test with mouse vas deferens (Table 1, read-out: EC50), the EC50 was found to be 3.86 nM.

As for `CN(C)C(=O)CCC/C=C\c1cccc(C(=O)N[C@H](CO)C(=O)O)c1` [[14], (R,Z)-2-(3-(6-(dimethylamino)-6-oxohex-1-en-1-yl)benzamido)-3-hydroxypropanoic acid], in the test with mouse vas deferens (setting [3]), the EC50 is 0.124 nM. For the same molecule, the Emax with mouse vas deferens (setting [4]) was determined as 58.5%.

As to `COC(=O)[C@@H](C)NC(=O)c1cccc(C#CCCCC(=O)N2CCCC2)c1` [[20], (R)-methyl 2-(3-(6-oxo-6-(pyrrolidin-1-yl)hex-1-yn-1-yl)benzamido)propanoate], in the test with mouse vas deferens (setting [3]), the EC50 was found to be 0.466 nM. For the same molecule, in the test with mouse vas deferens (setting [4]), the maximal effect (Emax) came out at 44.7%.

Turning to `COC(=O)[C@@H](C)NC(=O)c1cccc(/C=C\CCCC(=O)N2CCCC2)c1` [[21], (R,Z)-methyl 2-(3-(6-oxo-6-(pyrrolidin-1-yl)hex-1-en-1-yl)benzamido)propanoate], in the test on mouse vas deferens (setting [3]), the EC50 was determined as 0.162 nM. The Emax in the test on mouse vas deferens (setting [4]) is 58.3%.

Take `COC(=O)[C@H](CO)NC(=O)c1cccc(/C=C\CCCC(=O)N(C)C)c1` [[25], (S,Z)-methyl 2-(3-(6-(dimethylamino)-6-oxohex-1-en-1-yl)benzamido)-3-hydroxypropanoate]: the EC50 in the test with mouse vas deferens (setting [3]) worked out at 0.359 nM. The maximum response (Emax) in the test with mouse vas deferens (setting [4]) was determined as 52.9%.
